# “Also recorded” adds a separate entry of the source. Like-named read-outs stand apart in the source and are kept apart here.
# B1: BMP6: bone morphogenetic protein; promotes HFSC quiescence (protein, UniProt P22004 375-513, looked up)
# Bone morphogenetic protein 6: SASSRRRQQSRNRSTQSQDVARVSSASDYNSSELKTACRKHELYVSFQDLGWQDWIIAPKGYAANYCDGECSFPLNAHMNATNHAIVQTLVHLMNPEYVPKPCCAPTKLNAISVLYFDDNSNVILKKYRNMVVRACGCH
# B2: BMP4: bone morphogenetic protein (protein, UniProt P12644 293-408, looked up)
# Bone morphogenetic protein 4: SPKHHSQRARKKNKNCRRHSLYVDFSDVGWNDWIVAPPGYQAFYCHGDCPFPLADHLNSTNHAIVQTLVNSVNSSIPKACCVPTELSAISMLYLDEYDKVVLKNYQEMVVEGCGCR
# B3: FGF10: fibroblast growth factor 10, native HFSC niche mitogen (protein, UniProt O15520 38-208, looked up)
# Fibroblast growth factor 10: QALGQDMVSPEATNSSSSSFSSPSSAGRHVRSYNHLQGDVRWRKLFSFTKYFLKIEKNGKVSGTKKENCPYSILEITSVEIGVVAVKAINSNYYLAMNKKGKLYGSKEFNNDCKLKERIEENGYNTYASFNWQHNGRQMYVALNGKGAPRRGQKTRRKNTSAHFLPMVVHS
# Key:
# HFSCs [1] = experiment: HFSC growth, survival and colony formation in 3D Matrigel culture; format: cell-based, mouse; settings: for concentration at which maximal rates of cell proliferation were reached: 3D Matrigel culture, standard HFSC media
# cultured HFSCs [2] = experiment: Directed differentiation of cultured HFSCs to HS and IRS lineages (Cux1 reporters, GATA3, HOXC13); format: cell-based, mouse; settings: for hair shaft (HS) differentiation (HOXC13, HS reporter): WNT-BMP co-activated HFSCs
# HFSCs [3] = experiment: Wound repair with lineage-traced HFSCs, topical treatment; format: in vivo, mice
# Excerpt: The recruitment of HFSCs to epidermal repair is a multistep process, involving first the entry of HFSCs into a lineage plasticity state, second the fate switch to an epidermal fate and then later, the rebalancing of stem cell numbers across tissue compartments. Given the need for atRA to drive hair lineage determination, we analyzed whether elevating atRA after injury might diminish the ability of HFSCs to enter a state of lineage plasticity after wounding. To test this, we administered topical atRA immediately after wounding to telogen-phase, lineage marked HFSCs. While entry into the hair cycle proceeded normally after injury, topical atRA led to a stem cell imbalance (FIG. 5 Panel D).
# To assess the consequences of promoting lineage plasticity following injury, we placed mice on a vitamin A-deficient diet that depleted the skin of retinol without affecting body mass (FIG. 15 Panel E). In this case, following tissue injury, mobilized HFSCs entered a prolonged stated of dual lineage potential well into the later stages of repair (FIG. 5 Panel D). […] By day 30, vitamin A deficiency also elevated the fraction of stem cells that contributed to the repaired epidermis and diminished the number remaining in the bulge.
# CD34^+ HFSCs = experiment: Topical treatment of mouse back skin during resting phase of the hair cycle; format: in vivo, mice; settings: telogen
# cultured HFSCs [4] = experiment: HFSC quiescence / bulge identity in culture (Nfatc1, Cxcl14 reporter); format: cell-based, mouse
# Excerpt: In vivo, HFSCs can be divided into two populations: those in a more quiescent state found in the bulge and ones primed for activation, located in the ‘hair germ’ (HG) just below the bulge. As BMP6 is produced by the inner bulge and responsible for maintaining HFSCs in their quiescent state (FIG. 2 Panel A), we continued to utilize a described culture system by assessing how these factors impact HFSC activation and fate commitment.
# BMPs triggered cell cycle exit (FIG. 9 Panel A).
# (§1) ERKi was also excluded because of its known ability to regulate the initiation of hair growth. Both atRA (10 nM-1 μM) and PKCi (0.1-10 μM) were titrated to determine the optimal concentration to reduce lineage plasticity and promote physiological HFSC behavior. […] In contrast, BMP6-mediated Nfatc1 mRNA upregulation (quiescence marker) was maximal at 10 nM. Therefore, the amount of atRA should be modified in HFSC cultures to support the desired cell fate in combination with these and possibly other growth factors.
# cultured HFSCs [5] = experiment: Rspo/WNT-mediated HFSC activation in culture (TCF/LEF, Lgr5, EdU); format: cell-based, mouse
# Excerpt: In vitro, none of the four WNT-regulating TCF/LEF transcription factors were expressed under standard serum conditions or in serum-free conditions, even with PKCi. […] These HFSC-associated TFs were also stimulated by BMP6, consistent with a raised threshold for activating WNT during quiescence (FIG. 10, Panels A and B). […] Rspo-mediated HFSC proliferation was sensitive to atRA with the greatest cooperative effect seen at 10-fold higher the atRA concentration that had been optimal for quiescence-related features of stemness (FIG. 2 Panel E, FIG. 10 Panel D).
# as §1
# Klf5-EGFP = Klf5-EGFP lineage plasticity reporter in 3D cultured HFSCs (flow cytometry); format: cell-based, mouse; settings: for reduction of Klf5-EGFP levels: atRA and PKCi tested in combination; for effect on lineage plasticity (Klf5-EGFP levels): screen of small molecule library, serum-free 3D culture; for Klf5-EGFP levels: media modification
# HFSCs [6] = experiment: Transplantation of precultured HFSCs with dermal fibroblasts onto mouse back skins; format: in vivo; settings: HFSCs precultured in serum-free media primed with either atRA, BMP6 or Rspo
# Excerpt: By overcoming the hurdles to lineage progression in vitro, we challenged the in vivo regenerative potential of the described lineage-specified cell populations. YFP-labeled progenitors from each group were combined with allogenic dermal fibroblasts and transplanted onto mouse back skins.
# human keratinocytes = experiment: Human keratinocyte culture under the described conditions, 7 days; format: cell-based; settings: atRA plus PKCi added to B-27 media
# Excerpt: This example relates to FIG. 21. With respect to FIG. 21, to assess the translatability of the described methodology enabling the faithful recapitulation of hair follicle stem cell (HFSC) identity in culture to humans, we introduced the described conditions developed in the mouse to human keratinocytes.
# cultured HFSCs [7] = experiment: Marker expression in cultured HFSCs (immunofluorescence, immunoblot, qPCR); format: cell-based, mouse; settings: for resolution of lineage plasticity and HFSC behavior: combination of atRA and PKCi, 3D culture
# Excerpt: We first explored these two hits against the backdrop of our more physiological (serum-free) conditions, where SOX9 and KLF5 had already partitioned their expression peripherally and internally within colonies, respectively (FIG. 1 Panel C).
# Immunoblot, qPCR and additional immunofluorescence analyses strengthened the evidence that PKCi and atRA resolve lineage plasticity (FIG. 1 Panel D, FIG. S2, Panels C to E).
# hair follicle = experiment: Topical treatment of mouse back skin at mid-anagen (HF downgrowth)
# [8] = daily topical during HF downgrowth
molecule,measurement,setting,value
"[Ca+2].[Cl-].[Cl-] [CaCl2, Calcium Chloride]","effect on cell survival, colony formation or proliferation",HFSCs [1],Less CaCl2 reduced cell proliferation while higher amounts promoted epidermal differentiation
C[C@@H](N)[C@H]1CC[C@H](C(=O)Nc2ccncc2)CC1 [Y-27632],"effect on cell survival, colony formation or proliferation",HFSCs [1]; media component testing,increase cell survival and CFE
Cc1ccc(C2=CCC(C)(C)c3ccc(C#Cc4ccc(C(=O)O)cc4)cc32)cc1 [AGN193109],"hair shaft (HS) differentiation (HOXC13, HS reporter)",cultured HFSCs [2],uniquely promoted
same,"hair shaft (HS) differentiation (HOXC13, HS reporter)",cultured HFSCs [2]; listed as RARi,primarily increased HOXC13 expression and enhancer epicenter reporter activity for the HS lineage
same,HF downgrowth and epidermal flux following wounding,HFSCs [3]; topical,reducing HF downgrowth and promoting epidermal upward flux
"CC1=C(/C=C/C(C)=C/C=C/C(C)=C/C(=O)O)C(C)(C)CCC1 [atRA, all-trans-retinoic acid]",hair cycle (anagen) entry,CD34^+ HFSCs,facilitated hair cycle entry
same,hair cycle (anagen) entry,CD34^+ HFSCs; listed as RA,accelerated the onset of anagen entry
same,"bulge HFSC identity (Nfatc1, Cxcl14-EGFP reporter)",cultured HFSCs [4],"dose-dependent boost in bulge HFSC identity, optimal at low concentration"
same,"bulge HFSC identity (Nfatc1, Cxcl14-EGFP reporter)",cultured HFSCs [4]; listed as RA,increased
same,atRA concentration at which BMP6-mediated Nfatc1 mRNA upregulation was maximal,cultured HFSCs [4]; with BMP6,10 nM
same,Tcf7l1 (TCF3) and Tcf7l2 (TCF4) expression,cultured HFSCs [5],promoted expression
same,Sox9 and Rspo-mediated Lgr5 upregulation,cultured HFSCs [5]; compared among physiological vitamin A derivatives,greatest effect on Sox9 and Rspo-mediated Lgr5 upregulation
same,atRA concentration at which Lgr5 mRNA upregulation and EdU incorporation were optimized,cultured HFSCs [5]; with Rspo,100 nM
same,atRA concentration for greatest cooperative effect on Rspo-mediated HFSC proliferation relative to concentration optimal for quiescence,cultured HFSCs [5]; with Rspo,10 fold
same,reduction of Klf5-EGFP levels,Klf5-EGFP,most effective at reducing Klf5-EGFP levels
same,effect on lineage plasticity (Klf5-EGFP levels),Klf5-EGFP,effective at reducing lineage plasticity without affecting proliferation; also recorded: particularly effective agents impacting lineage plasticity
same,HFSC lineage plasticity state during wound repair,HFSCs [3]; topical after wounding,Fewer HFSCs entered the lineage plasticity state
same,"restoration of skin barrier (transepidermal water loss, TEWL)",HFSCs [3]; topical after wounding,clear delay in restoring the skin's barrier
same,HFSC lineage plasticity state during wound repair,"HFSCs [3]; topical after wounding, listed as RA",accelerated lineage plasticity resolution
same,hair regeneration and HFSC fate in vitamin A-deficient mice,"HFSCs [3]; topical to wound bed, vitamin A-deficient diet",all of these features were rescued
same,hair production upon engraftment,HFSCs [6],efficiently produced hair
same,KLF5 expression,human keratinocytes,further suppressed KLF5 expression in both basal and suprabasal layers
same,SOX9 levels,human keratinocytes,upregulated SOX9 levels
same,"keratin profile (KRT10, KRT6, KRT15)",human keratinocytes,reductions in KRT10 and KRT6; also recorded: upregulation of KRT15
same,Nfib and Tbx1 expression,cultured HFSCs [7],restored Nfib and Tbx1 expression
same,epidermal markers Sca1 and KRT10,cultured HFSCs [7],suppressed epidermal markers
same,Sox9 mRNA levels,cultured HFSCs [7]; atRA titrated 10 nM-1 μM,increased Sox9 mRNA levels in a dose-dependent manner
same,resolution of lineage plasticity and HFSC behavior,cultured HFSCs [7],optimally resolved lineage plasticity and favored HFSC behavior
same,KLF5 expression,cultured HFSCs [7]; serum-free conditions,not as effective in reducing KLF5
same,SOX9 population,cultured HFSCs [7]; serum-free conditions,markedly expanded the SOX9 population
same,TAC differentiation,hair follicle; [8],prevented TAC differentiation
same,hair regrowth,hair follicle; [8],prevented hair regrowth
same,proportion of HOXC13^+ to GATA3^+ cells,"hair follicle; topical, mid-anagen",reduced the relative proportion of HOXC13^+ to GATA3^+ cells
same,size of the hair bulb,"hair follicle; topical, mid-anagen",substantially reduced the size of the hair bulb overall
CC(C)CCC[C@@H](C)[C@H]1CC[C@H]2[C@@H]3CC=C4C[C@@H](O)CC[C@]4(C)[C@H]3CC[C@]12C [Cholesterol],HFSC colony growth,HFSCs [1]; serum-free media,increase colony growth without compromising reductions in lineage plasticity
"Cn1c2ccccc2c2c3c(c4c5ccccc5n(CCC#N)c4c21)CNC3=O [PKCi, Go-6976]",Cxcl14 activity,cultured HFSCs [4],little or no effect on Cxcl14 activity
same,reduction of Klf5-EGFP levels,Klf5-EGFP,most effective at reducing Klf5-EGFP levels
same,effect on lineage plasticity (Klf5-EGFP levels),Klf5-EGFP,effective at reducing lineage plasticity without affecting proliferation; also recorded: particularly effective agents impacting lineage plasticity
same,minimum concentration required to achieve maximal effect on lineage plasticity and HFSC fate,Klf5-EGFP; titrated 0.1-10 μM,1 µM
same,KLF5 expression,human keratinocytes,further suppressed KLF5 expression in both basal and suprabasal layers
same,SOX9 levels,human keratinocytes,upregulated SOX9 levels
same,"keratin profile (KRT10, KRT6, KRT15)",human keratinocytes; listed as G66976,reductions in KRT10 and KRT6; also recorded: upregulation of KRT15
same,KRT6 and Ets2 expression,cultured HFSCs [7],suppressed
same,resolution of lineage plasticity and HFSC behavior,cultured HFSCs [7],optimally resolved lineage plasticity and favored HFSC behavior
same,KLF5 expression,cultured HFSCs [7]; serum-free conditions,suppressed KLF5 expression
N[C@@H](CCC(=O)N[C@@H](CS)C(=O)NCC(=O)O)C(=O)O [glutathione],Klf5-EGFP levels,Klf5-EGFP,greatest impact when removed
"C[C@]12CCC(=O)C=C1CC[C@@H]1[C@@H]2[C@@H](O)C[C@@]2(C)[C@H]1CC[C@]2(O)C(=O)CO [Hydrocortisone, hydrocortisone]","effect on cell survival, colony formation or proliferation",HFSCs [1]; media component testing,not necessary for colony formation or cell proliferation
"EGF: epidermal growth factor, mitogen",concentration at which maximal rates of cell proliferation were reached,HFSCs [1],25 ng/mL
B1,cell state,cultured HFSCs [4]; BMP6 with low concentration of atRA (10 nM),resulted in cell cycle exit and maintained a state resembling quiescence
same,"cell cycle exit / quiescence (Nfatc1 expression, Cxcl14 promoter reporter)",cultured HFSCs [4]; compared among BMPs,most potent effect
same,Tcf7l1 (TCF3) and Tcf7l2 (TCF4) expression,cultured HFSCs [5],stimulated
same,hair production upon engraftment,HFSCs [6],efficiently produced hair
B2,lineages formed,"cultured HFSCs [2]; R-spondins, BMP2 and BMP4 together",directed HFSCs to form the hair shaft and inner root sheath lineages
same,Cux1 (IRS) and Cux1 (HS) reporter activity,cultured HFSCs [2]; alongside Rspo,most effective in upregulating reporter activity
B3,Klf5-EGFP levels,Klf5-EGFP,consistently lower
same,concentration at which maximal rates of cell proliferation were reached,HFSCs [1],10 ng/mL
